Calls of active or inactive are those of the source. The rule behind the calls is not given here.
Columns and labels:
[1] = Selectivity index, ratio of IC50 for rat L6 cells to IC50 for Trypanosoma cruzi Tulahuen C2C4 amastigotes infected in rat L6 cells; format: toxicity, cell-based; conditions: read-out: Ratio IC50
L6 = test: Cytotoxicity against rat L6 cells after 72 hrs by Alamar blue assay; format: cell-based; conditions: L6, 72 h
Trypanosoma cruzi [2] = test: Antitrypanosomal activity against Trypanosoma cruzi Tulahuen C2C4 amastigotes infected in rat L6 cells after 96 hrs by photometric analysis; format: functional, organism-based; conditions: Tulahuen C2C4, L6, 96 h
[3] = Metabolic stability in human liver microsomes assessed as CYP-dependent metabolism after 60 mins by LC-UV-MS analysis; format: ADME, Microsome; conditions: 1 h
Trypanosoma cruzi [4] = test: Ratio of Benznidazole IC50 to compound IC50 for Trypanosoma cruzi Tulahuen C2C4 amastigotes infected in rat L6 cells; format: functional
Leishmania donovani = test: […] activity against Leishmania donovani MHOM-ET-67/L82 amastigotes after 72 hrs by Alamar blue assay; format: functional, organism-based; conditions: MHOM-ET-67/L82, 72 h
Plasmodium falciparum = test: Antiplasmodial activity against erythrocytic stage of Plasmodium falciparum K1 after 48 hrs by [3H]-hypoxanthine incorporation assay; format: functional, organism-based
[5] = tested on: Trypanosoma brucei rhodesiense; test: Antitrypanosomal activity against Trypanosoma brucei rhodesiense STIB 900 trypomastigotes after 72 hrs by Alamar blue assay; format: functional, organism-based; conditions: STIB 900, 72 h
[6] = target: Sterol 14-alpha demethylase (Trypanosoma cruzi (strain CL Brener)) (UniProt Q7Z1V1); test: Inhibition of Trypanosoma cruzi CYP51
Sequence of Sterol 14-alpha demethylase (Trypanosoma cruzi (strain CL Brener)) (Q7Z1V1 whole entry, looked up): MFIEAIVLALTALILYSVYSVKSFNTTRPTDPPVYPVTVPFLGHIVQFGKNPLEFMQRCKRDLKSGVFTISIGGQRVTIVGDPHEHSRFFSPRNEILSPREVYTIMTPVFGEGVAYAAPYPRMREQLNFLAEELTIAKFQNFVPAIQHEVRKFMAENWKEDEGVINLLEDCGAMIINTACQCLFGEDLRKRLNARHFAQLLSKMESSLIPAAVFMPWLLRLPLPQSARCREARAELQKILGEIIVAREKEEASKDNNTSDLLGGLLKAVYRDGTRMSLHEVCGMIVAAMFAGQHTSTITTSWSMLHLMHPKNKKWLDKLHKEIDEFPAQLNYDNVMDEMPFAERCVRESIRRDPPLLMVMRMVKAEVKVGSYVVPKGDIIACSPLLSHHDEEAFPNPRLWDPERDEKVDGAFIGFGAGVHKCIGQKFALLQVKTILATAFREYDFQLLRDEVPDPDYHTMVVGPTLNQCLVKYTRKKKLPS

Structure (SMILES) | IC50 (Trypanosoma cruzi [2]) [µM] | IC50 (Plasmodium falciparum) [µM] | IC50 [5] [µM] | inhibition [6] | selectivity ratio [1] | IC50 (L6) [µM] | Stability [3] | Ratio IC50 (Trypanosoma cruzi [4]) | IC50 (Leishmania donovani) [µM]
CC(C)c1ccc(NC(=O)O[C@@H](Cn2ccnc2)c2ccc(Cl)cc2)cc1 | 0.112 | – | – | – | 125 | 14 | – | – | –
CCCCCCCCCCCCCCCCOP(=O)([O-])OCC[N+](C)(C)C [MILTEFOSINE] | – | – | – | – | – | – | – | – | 0.366
O=C(Nc1ccnc(Cl)c1)OCCN1CCOCC1 | 175 | 79.8 | 230 | inactive | 1.3 | 238 | – | – | 190
O=C(Cn1ccnc1[N+](=O)[O-])NCc1ccccc1 [BENZNIDAZOLE] | 1.67 | – | – | – | – | – | – | – | –
CC(C)c1ccc(NC(=O)OC(Cn2ccnc2)c2ccc(Cl)cc2)cc1 (racemic) | 0.005 | 1.8 | 18.2 | – | 2490 | 13 | – | – | 7
O=C(COc1ccccc1)OC(Cn1ccnc1)c1ccc(F)cc1 (racemic) | 24.4 | 36.7 | 294 | – | 7.5 | 182 | – | – | 17.3
COc1cc([C@@H]2c3cc4c(cc3[C@H](O)[C@H]3COC(=O)[C@H]23)OCO4)cc(OC)c1OC [PODOFILOX] | – | – | – | – | – | 0.001 | – | – | –
CC(C)c1ccc(NC(=O)O[C@H](Cn2ccnc2)c2ccc(Cl)cc2)cc1 | 0.0018 | – | – | – | 7470 | 13.4 | Unstable | <=1000 | –

More lines, main results first:

IC50 (Trypanosoma cruzi [2]) [µM] | IC50 (Plasmodium falciparum) [µM] | IC50 [5] [µM] | inhibition [6] | Structure (SMILES) | selectivity ratio [1] | IC50 (L6) [µM] | Stability [3] | Ratio IC50 (Trypanosoma cruzi [4]) | IC50 (Leishmania donovani) [µM]
0.0038 | – | – | – | O=C(O[C@H](Cn1ccnc1)c1ccccc1)c1ccc(-c2ccccc2)cc1 | 4800 | 18.2 | Unstable | <=1000 | –
48.4 | 60.2 | 139 | inactive | Cc1ncc([N+](=O)[O-])n1CCOC(=O)Nc1ccncc1Br | 4.6 | 222 | – | – | 85.1
0.0236 | – | – | – | O=C(Nc1cc(Cl)nc(Cl)c1)O[C@H](Cn1ccnc1)c1ccc(Cl)cc1 | 1340 | 31.6 | – | <=1000 | –
0.036 | 1.5 | 34 | – | O=C(Nc1cc(Cl)nc(Cl)c1)OC(Cn1ccnc1)c1ccc(Cl)cc1 (racemic) | 749 | 27.2 | – | – | 11.4
133 | 23.1 | 117 | inactive | O=C(Nc1cc(Cl)nc(Cl)c1)OCCN1CCOCC1 | 0.6 | 79.3 | – | – | 123
0.193 | – | – | – | O=C(O[C@@H](Cn1ccnc1)c1ccccc1)c1ccc(-c2ccccc2)cc1 | 143 | 27.5 | – | – | –
0.014 | 2.2 | 42.1 | – | O=C(OC(Cn1ccnc1)c1ccccc1)c1ccc(-c2ccccc2)cc1 (racemic) | 1580 | 23.6 | – | – | 5.4
0.0972 | – | – | – | O=C(Nc1cc(Cl)nc(Cl)c1)O[C@@H](Cn1ccnc1)c1ccc(Cl)cc1 | 158 | 15.4 | – | – | –
0.005 | 4.6 | 19.1 | – | CC(C)c1ccc(NC(=O)OC(Cn2ccnc2)c2ccc(F)cc2)cc1 (racemic) | 3360 | 16.8 | – | – | 15
